The values below come from patent US20130129675A1, “INTERFERON THERAPIES IN COMBINATION WITH BLOCKADE OF STAT3 ACTIVATION” (BOARD OF REGENTS, THE UNIVERSITY OF TEXAS SYSTEM, priority 2009, published 2013).

Series [1] relates to STAT3 in HaCaT keratinocytes. The series is described as follows: pSTAT3 level in HaCaT keratinocytes (MSD chemiluminescent detection). The class given is cell-based, human. How it is done: Prior to experiments, the DMEM medium was changed to KGM-SFM containing rEGF and bovine pituitary extract for 12 hours, and the cells then exposed to various stimuli for 30 minutes. Cell lysates were extracted in IP lysis buffer were diluted in MSD extraction buffer and 25 uL of the cell lysate containing 10 ug protein was used in the analysis via chemiluminescent detection (MSD Technology). To test for inhibition by WP1220 (WP), cells were pre-incubated with WP1220 prior to the addition of IFN α.

The test system of series [2] is STAT3 in HH, HuT78 and MJ CTCL lines. Nature of the series: STAT3 tyrosine 705 phosphorylation in CTCL lines. In kind it is cell-based, human. The note with it: serum starved 18 hours, stimuli 30 minutes (FIG. 7). How it is done: To determine whether IFN alpha and beta were able to selectively phosphorylate STAT3 in other cell types. Studies were conducted in a range of other biologically relevant cell types. In these experiments, cells were grown in media supplemented with 10% FBS, and then serum starved for 18 hours and exposed to various stimuli for 30 minutes.

Series [3] deals with melanoma. The note with it: cited from earlier work.
For series [4], the system named is STAT3 and Jak2 phosphorylation in SUP-T1 lymphoma cell line. Nature of the series: Cytokine signalling in SUP-T1 lymphoma cell line. In kind it is cell-based. The following applies: SUP-T1 lymphoma cell line (data not shown).
For series [5] the following is noted: cited from earlier work.
The subject of series [6] is p-STAT3 (Tyr705) in splenocytes. Nature of the series: p-STAT3 immunoblotting in splenocytes. The class given is cell-based, C57BL/6J mice. The following applies: 2 hours, 5 and 10 μM (FIG. 3B). How it is done: Immunoblotting analysis. Murine melanoma B16 cells and splenocytes were used for protein isolation and immunoblotting analysis as described below. B16 cells were seeded at a density of 2×10^6 cells/well in 6-well culture plates and incubated at 37° C., in an atmosphere containing 5% CO2, with the RPMI 1640 medium overnight. Afterward, B16 cells were cultured in the absence or presence of WP1193 (5 μM, 10 μM). After 3.5 hours, the B16 cells were further cultured in the absence or presence of 20 ng/ml of IFN-α for 30 minutes. For the splenocyte preparation, spleens from two 4- to 6-week-old female mice were harvested and disassociated into a single cell suspension. […] The supernatants were collected and quantified for protein content. […]
Autoradiography of the membranes was performed using Amersham ECL Western blotting detection reagents (Amersham Biosciences). The densities of the protein bands compared with the β-actin protein control were measured with the Image J program provided by the NIH.
In this experiment, B16 cells and splenocytes isolated from C57BL/6J mice and were incubated with either the medium, medium supplemented with titrated WP1193, medium supplemented with IFN-α, or medium supplemented with both IFN-α and WP1193. […] Semi-quantitative densitometry was used to determine the relative levels of p-STAT3 to STAT3 and β-actin.
In general terms: In western blotting, separated proteins are transferred to a membrane and probed.

Regarding IFN-α, in series [1], the “STAT3 activation in keratinocytes” value is recorded as “potently induce STAT3 activation”. For the same molecule, the “Relative level of pSAT3” value in series [1] (HaCaT cells, stimuli for 30 minutes) is “+++++ (+++++=400-500 fold)”. The “pSTAT3 stimulation (Table E8)” value in series [1] (SFM + IFN α, no inhibitor) was “+++++ (+++++=10,000-6,000)”. For the same molecule, the “tyrosine phosphorylation of STAT3 (tyrosine 705)” value in series [2] was “selectively stimulates tyrosine phosphorylation of STAT3”. Moreover, the “reduction in the relative relapse risk” value in series [3] (high-dose type I IFN-α, stage II and III melanoma, adjuvant trials) is given as 25-33%. Further, the “melanoma patients with an objective response” value in series [3] (human, in vivo) is 15%. The “STAT3 and Jak2 phosphorylation” value in series [4] is recorded as “potently induce STAT3 but not Jak2 phosphorylation”. For the same molecule, the “duration of sustained in vivo expression” value in series [5] (after administration of plasmid) is “more than 30 days”. Also, in series [5] (single i.v. hydrodynamic injection of 3 μg pORF plasmid encoding murine IFN-α), the “serum level of IFN-α” value is 0.9 ng/mL.

With `N#C/C(=C\c1cccc(Br)n1)C(=O)N[C@H](c1ccccc1)C1CC1` [WP1193, (S,E)-3-(6-bromopyridin-2-yl)-2-cyano-N-(cyclopropyl(phenyl)methyl)acrylamide], the “phosphorylation of p-STAT3” value in series [6] is reported as “inhibits the phosphorylation of p-STAT3”.
